Source: patent US20260191818A1 (University of South Carolina, priority 2022, published 2026)

Legend:
PPARG, PPARGCA1 = experiment: RT-PCR of rectus femoris, mitochondrial biogenesis genes; type: in vivo, CD2F1 mice; details: C26+5FU+Quer vs C26+5FU
Experimental: RNA from the proximal portion of the RF was isolated as previously described. […] Briefly, RNA was extracted from the RF using the […] procedure (Life Technologies, Gibco-BRL, Carlsbad, CA). RNA sample quality and quantities were verified using a Nanodrop One Microvolume UV-Vis Spectrophotometer (Thermo Fisher Scientific, Waltham, MA). […] Quantitative RT-PCR analysis was carried out as per the manufacturer's instructions (Applied Biosystems) using Taq-Man Gene Expression Assays.

IL-6 = experiment: Plasma interleukin-6 ELISA; type: in vivo, CD2F1 mice; details: C26+5FU+Quer vs C26+5FU
Experimental: Blood was collected retro orbitally prior to euthanasia while the mice were anesthetized. Whole blood was collected and put in an EDTA-coated tubes and store on ice prior to centrifugation (3,000 g at 4° C. for 10 min) for plasma collection. A commercially available IL-6 (SEQ ID NO: 9) enzyme-linked immunosorbent assay (ELISA) kit was obtained from BioLegend (San Diego, CA, USA). Briefly, a Costar clear 96-well plate (Corning, NY, USA) was coated with IL-6 (SEQ ID NO: 9) capture antibody and allowed to incubate overnight. The plate was then blocked with assay diluent buffer, and IL-6 (SEQ ID NO: 9) standards and plasma samples were added to the plate. Wells were then washed and detection antibody was incubated in each well for 1 h. The wells were again washed and then incubated with avidin horseradish peroxidase reagent. After several washes, 3,3′,5,5′-tetramethylbenzidine substrate was added, and the reaction was developed for 20 min. The reaction was stopped with sulfuric acid, and absorbance was measured.

[1] = test system: ApcMin/+ model of intestinal cancer; details: 25 mg/kg of quercetin; cited from earlier work
[2] = test system: soleus muscle mitochondria; experiment: Transmission electron microscopy of soleus muscle, mitochondrial number and size; type: in vivo, CD2F1 mice; details: C26+5FU+Quer vs C26+5FU
Experimental: Mitochondrial number and size were assessed in the soleus muscle using transmission electron microscopy (TEM). Skeletal muscle was prepared for TEM as previously described. See, VanderVeen, B. N., et al., 5-Fluorouracil disrupts skeletal muscle immune cells and impairs skeletal muscle repair and remodeling. J Appl Physiol (1985), 2022. 133(4): p. 834-849. The soleus was excised and initially fixed in 2.5% EM-grade glutaraldehyde followed by a secondary fixation in 1% osmium tetroxide and 1.5% K+ ferricyanide. After dehydration with increasing concentrations of ethanol, the samples were transferred to acetonitrile and embedded in Polybed 812. Ultrathin (~70 nm) sections were cut with a Leica Reichert Ultracut R ultramicrotome (Leica Microsystems GmbH, Wetzlar, Germany), collected on copper grids and stained with uranyl acetate and lead citrate. A JEOL 1400+ transmission electron microscope (JEOL USA, Peabody, MA) was used to view sections, and digital images were obtained with an Advanced Microscopy Techniques XR 81 Camera (Advanced Microscopy Techniques, Woburn, MA). Tissues were searched for intact and aligned sarcomeres by an investigator blinded to the experimental groups. […] Mitochondrial size was calculated by circling discernible mitochondria with ImageJ within the F.O.V. and averaged across the multiple images within a single mouse.

[3] = test system: succinate dehydrogenase (SDH) activity; experiment: Myofiber metabolic phenotype, succinate dehydrogenase (SDH) staining of TA cryosections; type: in vivo, CD2F1 mice; details: C26+5FU+Quer vs C26+5FU
Experimental: To assess skeletal muscle myofiber metabolic phenotype succinate dehydrogenase (SDH) activity was measured. SDH is an enzyme bound to the inner mitochondrial membrane and SDH activity is higher in type 1 fibers. See, Zogby, A. M., et al., Skeletal muscle fiber-type specific succinate dehydrogenase activity in cerebral palsy. Muscle Nerve, 2017. 55(1): p. 122-124. TA tissue cryosections were taken out of the -80° C. and air dried on the laboratory bench and then incubated in an SDH staining solution containing 0.5 mg/ml nitroblue tetrazolium and (Sigma, Cat #: N5514) and 50 mM sodium succinate (Sigma, Cat #: S2378) in PBS for 30 min at 37° C. See, […]., et al., Eccentric contraction-induced myofiber growth in tumor-bearing mice. J Appl Physiol (1985), 2016. 120(1): p. 29-37. Slides were then washed in distilled water 3×1 min before mounting with warmed glycerol mounting media and cover slipped. Images of SDH stains were taken at 4×, 20×, and 40× using a Keyence BZX800 microscope. […] Images were inverted thus higher values corresponded with higher SDH activity.

P62, LC3B, Parkin, BNIP3 = experiment: Western blot of rectus femoris, autophagy and mitophagy proteins; type: in vivo, CD2F1 mice; details: C26+5FU+Quer vs C26+5FU
Experimental: Protein isolation and western blotting was completed similar to what has been previously described. See, Sougiannis, A. T., et al., Impact of weight loss and partial weight regain on immune cell and inflammatory markers in adipose tissue in male mice. J Appl Physiol (1985), 2020. 129(4): p. 909-919. The rectus femoris (RF) was teased from the other quadriceps muscles, cut in half (proximal/distal), snap frozen in liquid nitrogen, and stored at −80° C. The distal RF was homogenized in Mueller Buffer (50 mM Hepes, 0.1% Triton-x, 4 mM EGTA, 10 mM EDTA, 15 mM Na4P207, 100 mM β-glycerophosphate, 25 mM NaF, and 5 mM NaVO4, with protease inhibitor cocktail) using a bead homogenizer at 4° C. Samples were centrifuged and the supernatant was collected and diluted with a diluent buffer (50% Glycerol, 50 mM Na4P2O7, 2.5 mM EGTA, and 1 mM β-mercaptoethanol with protease inhibitor cocktail). […] Between 10-50 μg of muscle protein homogenate was separated via SDS-PAGE and transferred to a PVDF membrane. Membranes were stained with Ponceau Red to confirm even loading and transfer efficiency. Membranes were then washed with tris buffered saline with 0.1% Tween (TBST) before blocking for 1 h at room temp with 5% milk TBST. Membranes were then incubated in primary anti-body (Table 1, see FIG. 8) overnight at 4° C. under gentle agitation. Membranes were then washed 3×5 min and incubated with the appropriate (anti-mouse or rabbit) HRP-linked secondary in 5% milk TBST for 1 h at room temperature. After a final 3×5 min wash membranes were incubated in chemiluminescent HRP substrate before visualization with a Syngene G:box. Images were then scanned, and relative protein expression was determined with ImageJ. Investigator was blinded to sample loading scheme and images were cropped after analysis for representation. All samples (full Ns) were run together for each protein. Dotted lines indicate where gels were cropped.

Compound: O=c1c(O)c(-c2ccc(O)c(O)c2)oc2cc(O)cc(O)c12 [quercetin, 3,4,5,7-pentahydroxylflavone]
- change in gene expression of PPARG (PPARG, PPARGCA1; p=0.04): −64.0%
- change in PPARGCA1 gene expression (PPARG, PPARGCA1; without changes, p=0.36): 10.3%
- plasma IL-6 (IL-6): did not appear that quercetin decreased
- muscle mass and strength [1]: preserved muscle mass and strength
- greater number of mitochondria ([2]; soleus TEM per F.O.V., p=0.04): 89.6%
- greater mitochondrial size ([2]; soleus TEM, p>0.01 as printed): 45.3%
- CSA across glycolytic, mixed, and oxidative fibers according to SDH activity [3]: increase
- mCSA and SDH across the spectrum of fibers analyzed [3]: increased
- change in LC3b expression (P62, LC3B, Parkin, BNIP3; no observed difference, p=0.2): −33.4%
- change in P62 expression (P62, LC3B, Parkin, BNIP3; no observed difference, p=0.20): −33.4%
- change in BNIP3 expression (P62, LC3B, Parkin, BNIP3; significant increase, p=0.024): 555%
